Reference: patent US20160223527A1, “An Immunological Assay To Detect And Quantify Acetylamantadine” (BIOMARK TECHNOLOGIES INC, priority 2013, published 2016)

What was measured:
[1] = target: anti-acetylamantadine affinity-purified antibodies absorbed with amantadine; assay: Competitive ELISA with affinity-purified antibodies against acetylamantadine absorbed with amantadine; type: binding, rabbit; settings: soluble competitor incubated one hour with antibodies; plates coated with streptavidin and biotinylated acetylamantadine 2 ng/mL; FIG. 2
Procedure: The affinity-purified antibodies against acetylamantadine were flowed over a column of cyanogen-bromide coupled agarose beads conjugated with amantadine and the peak of IgG was taken.
Enzyme-linked immunosorbent assay (ELISA) plates were coated with the biotin-binding protein streptavidin at 2 μg/mL and blocked with skim milk. The ELISA plates were then washed with phosphate-buffered saline with an automated washer. Biotinylated acetylamantadine at 2 ng/mL was added to the streptavidin-coated ELISA plates so that acetylamantadine was bound to the streptavidin. The ELISA plates were then washed to remove the free biotinylated acetylamantadine. The soluble acetylamantadine or the amatidine was titrated in a separate 96-well plate and incubated for an hour with a small, previously determined concentration of anti-acetylamantadine affinity-purified antibodies absorbed with amantadine that gives a clear signal in the ELISA plates coated with acetylamantadine. […]
The ELISA was incubated for two hours and then the ELISA was developed by adding goat antibodies against rabbit IgG conjugated with alakine phosphatase. The substrate was added and the ELISA developed by standard methods and the optical densities were assayed by an ELISA reader and are shown in FIG. 1. […] If one makes quadruplicate assays of samples of urine, one can accurately quantify acetylamantadine in the assay. […]

[2] = target: affinity-purified antibodies against acetylamantadine; assay: Competitive ELISA with affinity-purified antibodies against acetylamantadine, not absorbed with amantadine; type: binding, rabbit; settings: FIG. 3
[3] = target: serum of a rabbit immunized repeatedly against acetylamantadine; assay: Competitive ELISA with serum of a rabbit immunized repeatedly against acetylamantadine; type: binding; settings: dilution of serum; FIG. 4
Procedure: A New Zealand white rabbit was immunized intramuscularly with 250 μg of the acetylamantadine-ovalbumin conjugate emulsified in complete Freund's adjuvant. The rabbit was boosted multiple times with acetylamantadine-ovalbumin conjugate, twice with 100 μg of acetylamantadine-conjugate keyhole-limpet hemocyanin and once with 4 pg of avidin coupled with an excess of biotinylated acetylamantadine with alum as an adjuvant. The rabbit was boosted with 100 μg of the acetylamantadine-ovalbumin conjugate 14 days before the rabbit was euthanized and bled out.
The rabbit blood was allowed to clot and the sera were collected. […]
Enzyme-linked immunosorbent assay (ELISA) plates were coated with the biotin-binding protein streptavidin at 2 μg/mL and blocked with skim milk. […] The soluble acetylamantadine or the amatidine was titrated in a separate 96-well plate and incubated for an hour with a small, previously determined concentration of anti-acetylamantadine affinity-purified antibodies absorbed with amantadine that gives a clear signal in the ELISA plates coated with acetylamantadine. […]
The ELISA was incubated for two hours and then the ELISA was developed by adding goat antibodies against rabbit IgG conjugated with alakine phosphatase. The substrate was added and the ELISA developed by standard methods and the optical densities were assayed by an ELISA reader and are shown in FIG. 1. […]

[4] = test system: serum at 1:200 dilution; assay: Acetylamantadine competitive ELISA using serum at 1:200 dilution (FIG. 5); type: binding, rabbit; settings: serum 1:200; coating 2 ug/ml streptavidin and 6 ng/ml biotinylated acetylamantadine; tested 0.025 to 250 ng/ml
Procedure: It will accordingly be understood by a person skilled in the art that the immunological assay disclosed herein may be used to detect or quantify acetylamantadine in a patient who has taken a small dose of amantadine. This is shown in FIG. 5 which illustrates the results of an acetylamandine competitive ELISA with signal reading against acetylamantadine competitive concentration. The ELISA plate coating was 2 ug/ml streptavidin and 6 ng/ml biotinylated acetylamantadine. The competition ELISA using serum at 1:200 dilution against acetylamantadine ranging from 0.025 ng/ml to 250 ng/ml. Complete inhibition inhibition occurs near 100 ng/ml of soluble acetylamantadine. The detection limit (sensitivity) is near 0.5 ng/ml to 1.0 ng/ml The quantification of acetylamantadine can be used to quantify SSAT activity and elevated SSAT activity is an indication of diseases including, but not limited, to inflammations and cancers.

| Compound | concentration giving significant inhibition (50%) of the binding in the ELISA [1] | concentration giving significant inhibition (50%) of the binding in the ELISA [2] | concentration giving significant inhibition (50%) of the binding in the ELISA [3] | concentration at which complete inhibition occurs [4] |
| --- | --- | --- | --- | --- |
| CC(=O)NC12CC3CC(CC(C3)C1)C2 [acetylamantadine] | ~400 pg/mL | ~1.3 ng/mL | ~300 pg/mL | ~100 ng/mL |
| NC12CC3CC(CC(C3)C1)C2 [amantadine] | 4e+07 pg/mL | 100000 ng/mL | 1e+08 pg/mL | – |
